ChEMBL document CHEMBL1147406, “Polar substitutions in the benzenesulfonamide ring of celecoxib afford a potent 1,5-diarylpyrazole class of COX-2 inhibitors” (Bioorg Med Chem Lett, 2004)

What was measured:
[1] = target: T1, Prostaglandin G/H synthase 2 (Homo sapiens, UniProt P35354); assay: Inhibitory activity against human Prostaglandin G/H synthase 2 expressed in sf-9 cells infected with baculovirus; assay type: cell-based, Sf9
T1 sequence (P35354 whole entry): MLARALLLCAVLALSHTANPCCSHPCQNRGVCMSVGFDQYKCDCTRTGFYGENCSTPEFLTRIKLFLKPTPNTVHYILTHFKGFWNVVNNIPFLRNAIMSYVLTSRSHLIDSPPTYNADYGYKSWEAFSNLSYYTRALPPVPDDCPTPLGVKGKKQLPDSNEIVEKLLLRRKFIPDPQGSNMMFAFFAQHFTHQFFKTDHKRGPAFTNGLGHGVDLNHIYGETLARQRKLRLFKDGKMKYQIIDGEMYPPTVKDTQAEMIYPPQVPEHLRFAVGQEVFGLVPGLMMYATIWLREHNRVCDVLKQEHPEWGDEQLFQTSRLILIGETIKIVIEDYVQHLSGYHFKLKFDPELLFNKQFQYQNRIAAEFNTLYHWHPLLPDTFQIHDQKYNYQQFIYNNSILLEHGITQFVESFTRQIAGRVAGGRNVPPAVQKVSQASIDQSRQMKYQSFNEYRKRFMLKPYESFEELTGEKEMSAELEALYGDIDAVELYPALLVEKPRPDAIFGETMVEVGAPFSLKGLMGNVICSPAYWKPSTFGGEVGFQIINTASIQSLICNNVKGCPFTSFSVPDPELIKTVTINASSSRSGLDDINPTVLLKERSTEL

[2] = target: T2, Prostaglandin G/H synthase 1 (Ovis aries, UniProt P05979)
T2 sequence (P05979 whole entry): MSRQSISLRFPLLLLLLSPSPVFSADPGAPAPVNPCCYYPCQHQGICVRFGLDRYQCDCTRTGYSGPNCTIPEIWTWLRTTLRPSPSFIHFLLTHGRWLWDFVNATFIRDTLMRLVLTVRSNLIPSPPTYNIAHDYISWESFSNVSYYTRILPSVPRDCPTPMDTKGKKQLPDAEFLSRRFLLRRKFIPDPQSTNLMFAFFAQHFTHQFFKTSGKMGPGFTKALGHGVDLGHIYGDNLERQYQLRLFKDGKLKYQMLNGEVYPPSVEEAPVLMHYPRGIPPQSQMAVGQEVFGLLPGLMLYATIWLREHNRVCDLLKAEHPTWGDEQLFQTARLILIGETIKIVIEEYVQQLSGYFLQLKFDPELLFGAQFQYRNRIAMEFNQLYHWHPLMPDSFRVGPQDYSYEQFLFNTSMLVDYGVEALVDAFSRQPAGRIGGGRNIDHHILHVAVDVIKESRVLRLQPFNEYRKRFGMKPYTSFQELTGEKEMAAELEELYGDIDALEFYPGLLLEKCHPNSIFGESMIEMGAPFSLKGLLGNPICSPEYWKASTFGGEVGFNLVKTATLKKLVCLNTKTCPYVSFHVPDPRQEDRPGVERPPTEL

[3] = target: T3, Prostaglandin G/H synthase 1 (Ovis aries) (UniProt P05979); assay: Inhibitory activity against prostaglandin G/H synthase 1 from ram seminal vesicles at 100 uM concentration
T3 sequence (whole entry): T2 sequence (P05979 whole entry)

[4] = target: T4, Prostaglandin G/H synthase 2 (Homo sapiens) (UniProt P35354); assay: Inhibitory activity of compound against human Prostaglandin G/H synthase 2 expressed in sf-9 cells infected with baculovirus at 100 uM concentration; details: Sf9
T4 sequence (whole entry): T1 sequence (P35354 whole entry)

[5] = target: T4, Prostaglandin G/H synthase 2 (Homo sapiens); assay: Inhibitory activity of compound against human cyclooxygenase-2 expressed in sf-9 cells infected with baculovirus at 10 uM concentration; details: Sf9
[6] = target: T3, Prostaglandin G/H synthase 1 (Ovis aries); assay: Inhibitory activity of compound against prostaglandin G/H synthase 1 from ram seminal vesicles at 10 uM concentration
[7] = target: T3, Prostaglandin G/H synthase 1 (Ovis aries); assay: Inhibitory activity of compound against Prostaglandin G/H synthase 1 from ram seminal vesicles at 10 uM concentration

Row | SMILES | IC50 [1] | IC50 [2] | also measured
1 | CC(=O)NCc1cc(-n2nc(C(F)(F)F)cc2-c2ccc(C)cc2)ccc1S(N)(=O)=O | 6.85 µM | 4.62 µM | –
2 | COc1ccc(-c2cc(C(F)(F)F)nn2-c2ccc(S(N)(=O)=O)c(CNC(C)=O)c2)cc1 | 2.8 µM | 100 µM | –
3 | COc1ccccc1-c1cc(C(F)(F)F)nn1-c1ccc(S(N)(=O)=O)c(CO)c1 | 28.6 µM | 1150 µM | –
4 | NS(=O)(=O)c1ccc(-n2nc(C(F)(F)F)cc2-c2ccccc2Cl)cc1CO | 6.3 µM | 512 µM | –
5 | COc1ccc(-c2cc(C(F)(F)F)nn2-c2ccc(S(C)(=O)=O)c(CO)c2)cc1 | 3.2 µM | 300 µM | –
6 | Cc1ccc(-c2cc(C(F)(F)F)nn2-c2ccc3c(c2)CCS3(=O)=O)cc1 | – | – | inhibition [3]: 90%; inhibition [4]: 10%
7 | COc1ccc(-c2cc(C(F)(F)F)nn2-c2ccc(S(C)(=O)=O)c(C=O)c2)cc1 | – | – | inhibition [3]: 92%; inhibition [4]: 100%; inhibition [5]: 44%
8 | COc1ccc(-c2cc(C(F)(F)F)nn2-c2ccc3c(c2)CNS3(=O)=O)cc1 | – | – | inhibition [3]: 85%; inhibition [4]: 12%
9 | CC(=O)NCc1cc(-n2nc(C(F)(F)F)cc2-c2ccc(Cl)cc2)ccc1S(N)(=O)=O | 5 µM | 100 µM | –
10 | NS(=O)(=O)c1ccc(-n2nc(C(F)(F)F)cc2-c2cccc(F)c2)cc1CO | 7.05 µM | 1000 µM | –
11 | Cc1cccc(-c2cc(C(F)(F)F)nn2-c2ccc(S(N)(=O)=O)c(CO)c2)c1 | 0.728 µM | 327 µM | –
12 | CCC(=O)OCc1cc(-n2nc(C(F)(F)F)cc2-c2ccc(C)cc2)ccc1S(N)(=O)=O | 0.57 µM | 34.6 µM | –
13 | COc1ccc(-c2cc(C(F)(F)F)nn2-c2ccc3c(c2)CCS3(=O)=O)cc1 | – | – | inhibition [3]: 86%; inhibition [4]: 36%
14 | NS(=O)(=O)c1ccc(-n2nc(C(F)(F)F)cc2-c2ccc(O)cc2)cc1CO | – | – | inhibition [6]: 0%; inhibition [5]: 19%
15 | COc1ccc(-c2cc(C(F)(F)F)nn2-c2ccc3c(c2)COS3(=O)=O)cc1 | – | – | inhibition [3]: 92%; inhibition [4]: 36%
16 | CCOC(=O)OCc1cc(-n2nc(C(F)(F)F)cc2-c2ccc(C)cc2)ccc1S(C)(=O)=O | – | – | inhibition [7]: 9%; inhibition [5]: 0%
17 | CC(C)Cc1ccc(-c2cc(C(F)(F)F)nn2-c2ccc(S(N)(=O)=O)c(CO)c2)cc1 | – | – | inhibition [3]: 4%; inhibition [4]: 14%
18 | NS(=O)(=O)c1ccc(-n2nc(C(F)(F)F)cc2-c2cccc(Cl)c2)cc1CO | 1.95 µM | 465 µM | –
19 | CSc1ccc(-c2cc(C(F)(F)F)nn2-c2ccc(S(N)(=O)=O)c(C(C)O)c2)cc1 (stereo not given) | – | – | inhibition [3]: 6%; inhibition [4]: 50%
20 | CSc1ccc(-c2cc(C(F)(F)F)nn2-c2ccc(S(C)(=O)=O)c(CO)c2)cc1 | – | – | inhibition [3]: 0%; inhibition [4]: 45%
21 | CS(=O)(=O)c1ccc(-c2cc(C(F)(F)F)nn2-c2ccc(S(N)(=O)=O)c(CO)c2)cc1 | – | – | inhibition [3]: 68%; inhibition [4]: 29%
22 | NS(=O)(=O)c1ccc(-n2nc(C(F)(F)F)cc2-c2ccccc2F)cc1CO | 3.3 µM | 500 µM | –

Further lines, with some results ahead:

Row | IC50 [1] | IC50 [2] | SMILES | also measured
23 | 0.235 µM | 59.7 µM | CSc1ccc(-c2cc(C(F)(F)F)nn2-c2ccc(S(N)(=O)=O)c(CO)c2)cc1 | –
24 | 0.365 µM | 63 µM | COc1ccc(-c2cc(C(F)(F)F)nn2-c2ccc(S(N)(=O)=O)c(CO)c2)cc1 | –
25 | 51.2 µM | 300 µM | CCSc1ccc(-c2cc(C(F)(F)F)nn2-c2ccc(S(N)(=O)=O)c(CO)c2)cc1 | –
26 | 0.592 µM | 230 µM | NS(=O)(=O)c1ccc(-n2nc(C(F)(F)F)cc2-c2ccc(Br)cc2)cc1CO | –
27 | 0.712 µM | 336 µM | NS(=O)(=O)c1ccc(-n2nc(C(F)(F)F)cc2-c2ccc(Cl)cc2)cc1CO | –
28 | 3.45 µM | 1090 µM | NS(=O)(=O)c1ccc(-n2nc(C(F)(F)F)cc2-c2ccccc2)cc1CO | –
29 | 0.901 µM | 135 µM | CCOc1ccc(-c2cc(C(F)(F)F)nn2-c2ccc(S(N)(=O)=O)c(CO)c2)cc1 | –
30 | 0.76 µM | 278 µM | Cc1ccc(-c2cc(C(F)(F)F)nn2-c2ccc(S(N)(=O)=O)c(CO)c2)cc1 | –
31 | 1.38 µM | 500 µM | CCc1ccc(-c2cc(C(F)(F)F)nn2-c2ccc(S(N)(=O)=O)c(CO)c2)cc1 | –
32 | 1.99 µM | 500 µM | NS(=O)(=O)c1ccc(-n2nc(C(F)(F)F)cc2-c2ccc(F)cc2)cc1CO | –
